# Measured values reported in patent US5039791A, “Peptide fragments of tissue plasminogen activator” (Monsanto Company, priority 1989, dated 1991).
# “Also recorded” adds a separate entry of the source. Where no end group is shown, it is not given here.
# Tested on: human umbilical vein endothelial cells
# Test: Endothelial cell binding assay: binding of [125I]-tPA to endothelial cells
# Details: for inhibition of binding of tPA to endothelial cells (FIG. 3): 15 μg/ml peptide, about 20 ng/ml [125I]-tPA, 4° C., 90 minutes; for dose response of inhibition of binding of tPA to endothelial cells (FIG. 4): several peptide concentrations
# Procedure: Peptides from FIG. 1 were examined for their ability to inhibit the binding of [^125 I]-tPA to human umbilical vein endothelial cells. Assays were performed as described under Materials and Methods, below, using a final peptide concentration of 15 μg/ml. All samples were assayed in duplicate. Bar height represents the result obtained for one duplicate point and the corresponding error bar represents the result obtained for the other. Results are shown in percent inhibition of binding.
# Assays examining the binding of [^125 I]-tPA to endothelial cells were performed by a conventional method essentially as described by Hajjar et al., J. Clin. Invest. 80, 1712-1719 (1987), and Beebe, Thromb. Res. 46, 241-254 (1987). Briefly, cells were grown to confluence in 24-well dishes using MCDB107 growth medium supplemented with 180 μg/ml heparin, 30 μg/ml ECGS, 100 μg/ml gentamicin and 10% fetal bovine serum. Immediately prior to assay, plates were chilled to 4° C. and all wells were aspirated. Cells were washed 3 times with binding buffer (PBS, pH 7.2, 5.0 mg/ml BSA, 10 mM glucose, 0.01% Tween 80). Five hundred μl of buffer containing approximately 20 ng/ml of [^125 I]-tPA and a test sample of peptide was then added. Incubations proceeded at 4° C. for 90 minutes. At the end of the incubation time, cells were washed rapidly 4 times with 500 μl aliquots of binding buffer. Cells were separated from the plates using 3% sodium dodecylsulfate (SDS) and the amount of radioactivity present was determined. Nonspecific binding was determined by carrying out incubations in the presence of an excess (2.0 μg/ml) of unlabeled tPA.
# The peptides shown in Table 1 were examined for their effect on the binding of tPA to cultured human umbilical vein endothelial cells. […] All points were run in duplicate and nonspecific binding was subtracted in each case.
substance,measurement,value
"LGKHNYCRNPDGDAKPWCHVLKNRR-amide (LGKHNYCRNPDGDAKPWCHVLKNRR-NH2; cysteine pairing not given here) [Peptide 166, 25 amino acid synthetic peptide amide fragment of native human tPA]",inhibition of binding of tPA to endothelial cells (FIG. 3),effective at inhibiting the binding of tPA to cells
"NPDRDSKPWCYVFKAGKYSSEFCST-amide (NPDRDSKPWCYVFKAGKYSSEFCST-NH2; cysteine pairing not given here) [Peptide 158, 25 amino acid synthetic peptide amide fragment of native human tPA]",inhibition of binding of tPA to endothelial cells (FIG. 3),inhibited the binding of tPA to endothelial cells; also recorded: more effective at inhibiting endothelial cell binding relative to the other active peptides
same,dose response of inhibition of binding of tPA to endothelial cells (FIG. 4),concentration dependent manner
"VPVKSCSEPRCFNGGTCQQALYFSD-amide (VPVKSCSEPRCFNGGTCQQALYFSD-NH2; cysteine pairing not given here) [Peptide 148, 25 amino acid synthetic peptide amide fragment of native human tPA]",inhibition of binding of tPA to endothelial cells (FIG. 3),inhibited the binding of tPA to endothelial cells
same,dose response of inhibition of binding of tPA to endothelial cells (FIG. 4),concentration dependent manner
